# Test system: SF3B1 K700E mutant cell derived from the HEK293FT cells
# Assay: GCV-concentration-dependent cell death, MTT assay, lentiviral HSV-TK (BRD9 intron) in genome-edited cells
# Type: cell-based
# Conditions: SF3B1 K700E mutant cell (one allele) vs SF3B1 normal cell; GCV 100 to 0.16 μg/mL, 48 hours; FIG. 7
# Procedure: In this example, in order to verify the toxicity of a suicide gene in a cell having an SF3B1 K700E mutation in one allele in a genome, as in actual cancer cells, HEK293FT cells were genome-edited and an SF3B1 K700E mutant cell strain was established.
# Meanwhile, an HSV-TK expression lentiviral vector containing the BRD9 intron was prepared using the pHR vector shown in SEQ ID NO: 11 (FIGS. 3A and 3B). The lentiviral vector was introduced into the SF3B1 K700E mutant strain and an SF3B1 normal strain as a control, and the number of cells killed by the addition of GCV was quantified using the MTT assay method. A detailed procedure will be shown below. […]
# The solubilized solution of the MTT cell number measuring kit (Nacalai Tesque Inc.) was added into the HEK293FT cells at 100 μL/well, and the mixture was incubated at 37° C. After 20 hours, the absorbance at 570 nm (reference wavelength: 655 nm) was measured with the microplate reader.
# The number of viable cells was calculated based on a standard curve using the above-mentioned serially diluted HEK293FT cells, and the viability was shown as a ratio when the number of cells in the GCV-free group was 100%. Further, the efficacy was evaluated by comparing the cytotoxicity due to GCV addition in the SF3B1 normal cell with the cytotoxicity of the SF3B1 K700E mutant cell. […]
substance,measurement,value
"suicide gene containing the BRD9 intron: SFFV promoter, HSV-TK inserted with an intron of BRD9 containing no normal acceptor sequence, puromycin resistance gene linked by P2A",viability (ratio when the number of cells in the GCV-free group was 100%),viability lower than that of the SF3B1 normal cell

# Reference: US12521450B2, “DNA, expression vector, transcript, cell, pharmaceutical composition, and medicine” (Hitachi, Ltd., priority 2021, dated 2026)
